# Results as given in US7214663B2, “Tripeptide prodrug compounds” (Medarex, Inc., priority 2001, dated 2007).
# How the values were obtained:
# [1] = SD-MTD studies, 60 days, normal mice (Example 14); conditions: mouse, in vivo; for MTD: Table 12, re-analyzed data and new data
# Protocol: In the single dose Maximum Tolerated Dose (SD-MTD) studies, groups of normal mice were administered intravenous bolus doses of the prodrug. The mice were observed daily for 60 days and body weights measured twice weekly. The SD-MTD was estimated to be equal to the highest dose that produced no death in mice after 60 days.
# tumor-bearing nude mice = experiment: Repeat-dose tolerability / repeat dose MTD in tumor bearing mice; type: in vivo, mouse; conditions: Table 11, five doses at five day or 1 week intervals
# Text: (§1) In one study, one animal in each dose group (n=8) was terminated as a possible drug-related toxicity death late in the study, at Days 58 and 57 in the low and high dose-groups respectively. The safety of the compound was evidenced by little body weight loss in either the high or low dose groups (less than 5% of the initial weight) during the 60-day observation period, in surviving animals (FIG. 14). In the other study, both the high and low dose were well tolerated. Only one animal in the high dose group (n=10) had over 15% of body weight loss at the end of the study (Day 61).
# (§2) In repeat-dose studies in tumor bearing mice, groups of ten mice were dosed with various amounts of prodrug for a total of five doses at either five day or 1 week intervals. […] Thus, the prodrugs permit a much greater amount of therapeutic agent to be delivered to the body as a whole and thus to the vicinity of the target cell.
# [2] = Metabolism and clearance of Suc-Leu-Ala-Leu-Dox in mice (plasma, urine); type: in vivo, mouse
# Protocol: Plasma samples of 100 μl were transferred to microcentrifuge tubes (1.5 mL) and an internal standard of daunorubicin (20 μL at 0.5 mg/ml) was added together with acetonitrile (400 μl). The tubes were capped and briefly vortexed followed by centrifugation at 14,000 rpm. 420 μl from each tube was removed and dried in vacuo. Each sample was reconstituted in 65 μl 20 mM aqueous ammonium formate (AF) pH 4.5 buffer containing acetonitrile (20%) prior to analysis by reverse phase liquid chromatography in combination with tandem mass spectrometry (LC MS/MS).
# Urine was collected at 2 and 24 hours post administration from pairs of mice in metabolic cages. Urine samples were diluted with AF buffer containing acetonitrile (20%) to give a target analyte concentration within the practical range of the LC MS/MS assay. 30 μl of each diluted sample was placed in a micro centrifuge tube (1.5 ml) and an internal standard of daunorubicin (20 μL at 0.5 mg/ml) was added together with 50 μl of AF buffer containing acetonitrile (20%). Each sample was then analyzed by LC MS/MS.
# An Agilent HP1100 HPLC with DAD detector and Chemstation software was coupled to a PE Sciex API 365 mass spectrometer with an electrospray ion source. HPLC was performed on a TSK-Gel Super ODS, […], 4.6×50 mm (TosoHaas) reversed phase column equipped with a […] C18 guard disc (Higgins Analytical) and stainless steel frit (Upchurch Scientific). Chromatography was performed at room temperature. The flow rate was 0.5 ml/min. Injection volume was 50 μl. Gradient elution was performed using a mobile phase of AF buffer with increasing amounts of acetonitrile. The API 365 was operated at 365° C. in a multiple reaction monitoring mode, set to monitor specific analyte parent-daughter ion pairs. Integration of chromatograms was performed by MacQuan software (PE Sciex) and quantitation of each analyte obtained by comparison to previously obtained calibration curves. Daunorubicin was used as an internal standard in all cases.
# [3] = Metabolism and clearance of Suc-Met-Ala-Leu-Dox in mice (plasma, urine); type: in vivo, mouse
# Protocol: Plasma samples were obtained at 1 or 4 hours, and urine was collected at 2 and 24 hours post administration. Levels of the prodrug and metabolites were measured by LC-MS with UV detection of doxorubicin.
# [4] = tested on: human colon carcinoma (HT-29); experiment: HT-29 xenograft efficacy study
# Text: Healthy young male nude mice were subcutaneously injected with 5 million of HT-29 cells.
# Namalwa cells (CD10pos) = experiment: cells; type: cell-based, human; conditions: 24 hours, 3H-thymidine
# Protocol: (§3) In addition to LNCaP, a number of B-cell lines, such as Ramos and Namalwa cells express CD10 (CD10^pos cells).
# (§4) Suspension cells, BALL-1, Ramos and Namalwa cells were cultured in RPMI media containing 10% heat inactivated fetal calf serum (FCS). On the day of the study, the cells were collected, washed and resuspended at a concentration of 0.5×10^6 cells/ml in RPMI containing 10% FCS. 100 μl of cell suspension was added to 96 well plates. […] Finally 10 μl of a 100 μCi/ml ^3H-thymidine was added per well and the plates were incubated for 24 hours. The plates were harvested using a 96 well Harvester (Packard Instruments) and counted on a Packard Top Count counter. Four parameter logistic curves were fitted to the ^3H-thymidine incorporation as a function of drug molarity using Prism software to determine IC50 values.
# in vivo [5] = conditions: female, mouse, iv
# in vivo [6] = conditions: female, ICR, mouse, iv
# Protocol: Plasma was obtained from three individual animals in each group at 5 minutes, 1, 2, 4, or 6 hr.
# [7] = tested on: human colon carcinoma (LS174T); experiment: LS174T xenograft efficacy study; conditions: doxorubicin-insensitive model
# Protocol: Healthy young female nude mice were subcutaneously implanted with chunks of LS174T. […] Tumor size and body weights were measured twice weekly for up to 60 days.
# [8] = tested on: HT-29 (colon carcinoma) cells; conditions: HT29, 48 hours, 3H-thymidine incorporation
# Protocol: (§5) Adherent cells, LNCaP (prostate carcinoma), HT-29 (colon carcinoma) and PC-3 (prostate carcinoma), were cultured in DMEM media containing 10% heat inactivated fetal calf serum (FCS). On the day of the study the cells were detached from the plate with a trypsin solution. The collected cells were washed and resuspended at a concentration of 0.25×10^6 cells/ml in DMEM containing 10% FCS. 100 μl of cell suspension were added to 96 well plates and the plates were incubated for 3 hours to allow the cells to adhere. […] The plates were then incubated for 24 hours, pulsed with 10 μl of a 100 μCi/ml ^3H-thymidine and incubated for an additional 24 hours (total incubation time 48 hours). The plates were harvested using a 96 well Harvester (Packard Instruments) and counted on a Packard Top Count Counter. Four parameter logistic curves were fitted to the ^3H-thymidine incorporation as a function of drug molarity using Prism software to determine IC50 values.
# (§6) Prostate carcinoma cells, LNCaP and PC-3 cells or colon carcinoma cells HT-29, were incubated with increasing concentration of the indicated compounds for 48 hours and cellular proliferation was measured using the ^3H-thymidine assay.
# [9] = tested on: LNCaP (prostate carcinoma) cells; conditions: 48 hours, 3H-thymidine incorporation
# Protocol: as §5, §6
# [10] = tested on: PC-3 (prostate carcinoma) cells; conditions: PC-3, 48 hours, 3H-thymidine incorporation
# Protocol: as §5, §6
# [11] = Single dose Maximum Tolerated Dose (SD-MTD) study, 49 days, ICR mice (Examples 5 and 6); conditions: mouse, in vivo, iv, SD-MTD (mg/kg), intravenous bolus, ICR mice, Day 49
# Protocol: (§7) In a second single dose Maximum Tolerated Dose (SD-MTD) study, groups of five normal ICR mice were administered intravenous bolus doses of Suc-Leu-Ala-Leu-Dox. The mice were observed daily for 49 days and body weights measured twice weekly.
# (§8) In a second single dose Maximum Tolerated Dose (SD-MTD) study, groups of five normal ICR mice were administered intravenous bolus doses of Suc-Leu-Ala-Gly-Dox. The mice were observed daily for 49 days and body weights measured twice weekly.
# normal ICR mice = experiment: as above
# Protocol: as §7, §8
# [12] = Repeat-dose tolerability / repeat dose MTD in tumor bearing mice; type: in vivo, mouse; conditions: mouse, in vivo, Table 12, re-analyzed
# Text: as §1, §2
# BALL-1 cells (CD10neg) = type: cell-based, human; conditions: Ball-1 (CD10neg), 24 hours, 3H-thymidine
# Protocol: as §3, §4
# Ramos cells (CD10pos) = type: cell-based, human; conditions: 24 hours, 3H-thymidine
# Protocol: as §3, §4
# [13] = after single intravenous 117 mg/kg Suc-Leu-Ala-Leu-Dox
# [14] = after single intravenous 120 mg/kg Suc-Met-Ala-Leu-Dox
# [15] = 4.0 mg/kg every 7 days for 5 doses
compound,measurement,setting,value
"COc1cccc2c1C(=O)c1c(O)c3c(c(O)c1C2=O)C[C@@](O)(C(=O)CO)C[C@@H]3O[C@H]1C[C@H](N)[C@H](O)[C@H](C)O1 [Doxorubicin, reference compound]",MTD at 60 days,"[1]; Table 11, doses as first stated, intravenous bolus, 60 days",4 mg/kg
same,"Optimal Efficacy Repeat Dose (mg/kg), value in parentheses (doxorubicin equivalent dose)",tumor-bearing nude mice,4 (4) mg/kg
same,Optimal Efficacy Repeat Dose (mg/kg),"tumor-bearing nude mice; tumor bearing mice, 60 days",4 (4) mg/kg
same,"Urine 2 hr, percent of administered dose",[2]; [13],0.05%
same,"Urine 24 hr, percent of administered dose",[2]; [13],0.15%
same,"Plasma 1 hr, percent of administered dose","[2]; female, mouse, in vivo, iv, 117 mg/kg, 1 h",0.002%
same,"Plasma 4 hr, percent of administered dose","[2]; female, mouse, in vivo, iv, 117 mg/kg, 4 h",0.000%
same,"Urine 2 hr, percent of administered dose",[3]; [14],0.30%
same,"Urine 24 hr, percent of administered dose",[3]; [14],0.61%
same,"Plasma 1 hr, percent of administered dose","[3]; female, mouse, in vivo, iv, 120 mg/kg, 1 h",0.002%
same,"Plasma 4 hr, percent of administered dose","[3]; female, mouse, in vivo, iv, 120 mg/kg, 4 h",0.002%
same,Calculated Mean Day of Survival,[4]; [15],30.0 ± 3.7 days
same,Extension of Mean Day of Survival over controls,[4]; [15],16.7%
same,Number of Long Term Survivors,[4]; [15],0/10
same,Calculated Mean Day of Survival,"[4]; 4.0 mg/kg every 7 days for 5 doses, listed as doxorubicin",30 days
same,IC50,Namalwa cells (CD10pos); Homo sapiens,0.01 µM
same,MTD at 28 days,in vivo [5],4 to 8 mg/kg
same,AUC,in vivo [6],3.3 µM·h
same,anti-tumor activity in LS174T xenograft,[7],virtually inactive
COc1cccc2c1C(=O)c1c(O)c3c(c(O)c1C2=O)C[C@@](O)(C(=O)CO)C[C@@H]3O[C@H]1C[C@H](NC(=O)CNC(=O)[C@H](C)NC(=O)[C@H](CC(C)C)NC(=O)CCC(=O)O)[C@H](O)[C@H](C)O1 [Suc-Leu-Ala-Gly-Dox],IC50,[8],32 µM
same,IC50,[9],15 µM
same,IC50,[10],39 µM
same,MTD,[11],≥ 220 mg/kg
same,"acute toxicity, within 24 hours",normal ICR mice; any dose level,no acute toxicity
same,"mortalities, morbidity or significant body weight loss over the 49 day study",normal ICR mice; any dose level up to 220 mg/kg,"no mortalities, morbidity or significant body weight loss"
same,SD-MTD Molar Ratio (Dox =),normal ICR mice; molar basis versus doxorubicin alone,8.8
same,MTD,"[1]; SD MTD (mg/kg), value in parentheses: doxorubicin equivalent dose",> 141 mg/kg
same,MTD,[1]; read-out: SD MTD,> 220 mg/kg
same,MTD,"[12]; Repeat Dose MTD (mg/kg), value in parentheses: doxorubicin equivalent dose, Q 5 D × 5 or Q 7 D × 5",> 70 mg/kg
same,MTD,"[12]; Q 5 D × 5 or Q 7 D × 5 as given per compound, read-out: Repeat Dose MTD",> 110 mg/kg
same,Toxicity (Weight Loss > 20%),[4]; 40 mg/kg every 7 days for 5 doses,0/7
same,Toxicity (Weight Loss > 20%),[4]; 67 mg/kg every 7 days for 5 doses,0/7
same,IC50,BALL-1 cells (CD10neg),23.3 µM
same,IC50,Ramos cells (CD10pos),22.7 µM
same,IC50,Namalwa cells (CD10pos),17.3 µM
same,AUC,in vivo [6]; 100 umol/kg,310 µM·h
